Experimental data reported in US8247579B2, “Spirocyclic tetronic acid derivatives” (Bayer Cropscience AG, priority 2007, dated 2012).

Assays:
[1] = system: mixed thrips population (Frankliniella occidentalis); experiment: Frankliniella occidentalis (FRANOC spray treatment); assay type: in vivo; conditions: bean leaf disks
Procedure: Frankliniella occidentalis (FRANOC Spray Treatment)
If addition of ammonium salts is required, these are added by pipette in a concentration of 1000 ppm after dilution of the respective finished solution of the preparation.

[2] = Determination of the logP values by HPLC (EEC Directive 79/831 Annex V.A8); assay type: physicochemical; conditions: reversed-phase C18 HPLC column, reversed-phase C18, 43° C., acidic range (pH 2.3)
Procedure: Determination of the LogP Values The logP values given in the table were determined in accordance with EEC Directive 79/831 Annex V .A8 by HPLC (High Performance Liquid Chromatography) on a reversed-phase column (C18). Temperature: 43° C. Mobile phases for the determination in the acidic range (pH 2.3): 0.1% aqueous phosphoric acid, acetonitrile; linear gradient from 10% acetonitrile to 90% acetonitrile The calibration was carried out using unbranched alkan-2-ones (having 3 to 16 carbon atoms) with known logP values (determination of the logP values by the retention times using linear interpolation between two successive alkanones).

[3] = system: larvae of the mustard beetle (Phaedon cochleariae); experiment: Phaedon test (PHAECO spray treatment); conditions: application rate of 100 g/ha, Chinese cabbage discs
[4] = system: Tetranychus urticae, resistant; experiment: Tetranychus urticae (TETRUR RAUS) spray test, resistant mites on bush bean plants; assay type: in vivo; conditions: concentration of 5 ppm, spraying
Procedure: Tetranychus urticae (TETRUR RAUS)
Bush bean plants (Phaseolus vulgaris) infested with a mixed population of resistant greenhouse red spider mites (Tetranychus urticae, resistant) are treated by spraying with the active compound preparation of the desired concentration.
(§1) After the desired period of time, the kill in % is determined.

[5] = system: Green peach aphid (Myzus persicae); experiment: Myzus persicae test (MYZUPE), dip treatment of cabbage leaves; assay type: in vivo; conditions: 100 ppm
Procedure: Myzus persicae Test (MYZUPE)
(§2) If addition of ammonium salts, penetrants or ammonium salts and penetrants is required, these are added by pipette in a concentration of 1000 ppm after dilution of the respective finished solution of the preparation.
Cabbage leaves (Brassica oleracea) which are heavily infested by the Green peach aphid (Myzus persicae) are treated by being dipped into the active compound preparation of the desired concentration.
as §1

[6] = system: greenhouse red spider mite (Tetranychus urticae sensitive); experiment: Tetranychus test, OP-resistant/dip treatment (TETRUR); assay type: in vivo; conditions: dip
Procedure: Tetranychus Test, OP-Resistant/Dip Treatment (TETRUR)
as §2

Cc1cc(C)c(C2=C(OC(=O)CC34CC5CC(CC(C5)C3)C4)C3(CCCC3)OC2=O)c(C)c1 [Example I-1]
effect in % (thrips killed) ([1]; application rate of 500 g/ha): 80%
chromatographic logP [2]: 6.94

Cc1cc(C)c(C2=C(OC(=O)CC3(C)OCCO3)C3(CCCC3)OC2=O)c(C)c1 [Example I-2]
effect in % (thrips killed) ([1]; application rate of 100 g/ha): 63%
chromatographic logP [2]: 3.85
effect in % (beetle larvae killed) [3]: 67%

CCC(C)(C)CC(=O)OC1=C(c2c(C)cc(C)cc2C)C(=O)OC12CCCC2 [Example I-3]
kill in % [4]: 97%

COC(C)(C)CC(=O)OC1=C(c2c(C)cc(C)cc2C)C(=O)OC12CCCC2 [Example I-5]
chromatographic logP [2]: 4.45
MYZUPE % 6 d (kill in %) [5]: 55%
TETRUR % 7 d (effect in %) ([6]; 0.78125 ppm): 30%
TETRUR % 7 d (effect in %) ([6]; 1.5625 ppm): 50%
TETRUR % 7 d (effect in %) ([6]; 3.125 ppm): 90%

Cc1cc(C)c(C2=C(OC(=O)CC(C)(C)C)C3(CCCC3)OC2=O)c(C)c1 [spiromesifen, reference compound]
effect in % (thrips killed) ([1]; application rate of 100 g/ha): 0%
effect in % (thrips killed) ([1]; application rate of 500 g/ha): 0%
MYZUPE % 6 d (kill in %) [5]: 30%
TETRUR % 7 d (effect in %) ([6]; 0.78125 ppm): 0%
TETRUR % 7 d (effect in %) ([6]; 1.5625 ppm): 30%
TETRUR % 7 d (effect in %) ([6]; 3.125 ppm): 50%
kill in % [4]: 30%
effect in % (beetle larvae killed) [3]: 33%
